Measured values: patent US20060013804A1, “Modulation of stem cell differentiation by modulation of caspase-3 activity” (Ottawa Health Research Institute, priority 2002, published 2006)

Tested on: neurospheres
Test: Cytotoxicity observed in neurosphere cultures
Format: cell-based, mouse
Conditions: neurosphere experiments
From the text: Under growth conditions, neurospheres readily stained for nestin, an intermediate protein highly expressed in early neuronal progenitors (Lendahl et al., Cell 60, 585-595). […] Subsequently, we compared neural differentiation without caspase 3 activity. […] Increased expression of GFAP, MBP are characteristic with the early formation of astrocytes and oligodendrocytes respectively (Gage, F. H. (2000) Science 287, 1433-1438).

SMILES: CC(=O)N[C@@H](CC(=O)O)C(=O)N[C@@H](CCC(=O)O)C(=O)N[C@H](C(=O)N[C@H](C=O)CC(=O)O)C(C)C [Ac-DEVD-CHO]
- cytotoxicity: high levels of cytotoxicity
